ChEMBL document CHEMBL1201862, “PubChem BioAssay data set” (2004)
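Tested at 5 concentrations; 48 h exposure; 96-well plates; endpoints linearly interpolated, else capped at highest concentration. GI50: concentration for 50% inhibition of growth.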 Calls of active or inactive are those of the source. Cut-off read from the data, not from the text of the source: active = GI50 up to about 1.1 µM and inactive = higher.

Columns and labels:
Experiment in all cases: inhibition of tumour cell growth, NCI panel, 48 h
[1] = tested on: ACHN
[2] = tested on: CCRF-CEM
[3] = tested on: COLO 205
[4] = tested on: DU-145
[5] = tested on: HCC 2998
[6] = tested on: HCT-116
[7] = tested on: HOP-92
[8] = tested on: M14
[9] = tested on: MDA-MB-435
[10] = tested on: MDA-N
[11] = tested on: Malme-3M
[12] = tested on: OVCAR-3
[13] = tested on: OVCAR-4
[14] = tested on: PC-3
[15] = tested on: RXF 393
[16] = tested on: SF-268
[17] = tested on: SF-295
[18] = tested on: SF-539
[19] = tested on: SK-OV-3
[20] = tested on: UACC-62

Measured: GI50

COCCOC(C)C(=O)C(O)S(=O)(=O)O (stereo not given)
inactive: [1] > 100 µM | [2] > 100 µM | [3] > 100 µM | [4] > 100 µM | [5] > 100 µM | [6] > 100 µM | [7] > 100 µM | [8] > 100 µM | [9] > 100 µM | [10] > 100 µM | [11] > 100 µM | [12] > 100 µM | [13] > 100 µM | [14] > 100 µM | [15] > 100 µM | [16] > 100 µM | [17] > 100 µM | [18] > 100 µM | [19] > 100 µM | [20] > 100 µM
